{"source": "ChEMBL document CHEMBL2074415", "about": "“Expression and characterization of a functional rat liver Na+ bile acid cotransport system in COS-7 cells” (Am J Physiol, 1994)", "assay_type_in_all_cases": "functional, cell-based", "details_in_all_cases": "monkey, cos-7, 100 µM", "key": {"[1]": {"target": "T1, Hepatic sodium/bile acid cotransporter (Rattus norvegicus, UniProt P26435)", "T1 sequence (P26435 whole entry)": "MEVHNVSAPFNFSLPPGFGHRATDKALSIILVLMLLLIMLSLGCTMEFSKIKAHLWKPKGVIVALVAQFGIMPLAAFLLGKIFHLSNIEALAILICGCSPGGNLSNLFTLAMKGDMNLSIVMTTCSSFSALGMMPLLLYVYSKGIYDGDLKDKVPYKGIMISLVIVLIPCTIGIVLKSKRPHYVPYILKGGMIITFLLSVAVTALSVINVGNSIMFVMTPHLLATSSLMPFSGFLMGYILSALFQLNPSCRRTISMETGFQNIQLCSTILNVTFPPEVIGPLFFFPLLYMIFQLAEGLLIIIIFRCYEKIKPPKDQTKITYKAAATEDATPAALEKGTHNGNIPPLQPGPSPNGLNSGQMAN", "test": "TP_TRANSPORTER: inhibition of Taurocholate uptake (Taurocholate: 5 uM, CDCA: 100 uM) in Ntcp-expressing COS-7 cells"}, "[2]": {"target": "T1, Hepatic sodium/bile acid cotransporter", "test": "TP_TRANSPORTER: inhibition of Taurocholate uptake (Taurocholate: 5 uM, TUDC: 100 uM) in Ntcp-expressing COS-7 cells"}, "[3]": {"target": "T1, Hepatic sodium/bile acid cotransporter", "test": "TP_TRANSPORTER: inhibition of Taurocholate uptake (Taurocholate: 5 uM, UDCA: 100 uM) in Ntcp-expressing COS-7 cells"}}, "data": [{"smiles": "C[C@H](CCC(=O)O)[C@H]1CC[C@H]2[C@@H]3[C@H](O)C[C@@H]4C[C@H](O)CC[C@]4(C)[C@H]3CC[C@]12C", "note": "[CHENODIOL]", "values": [{"measurement": "Activity", "setting": "[1]", "result": "inhibitor [(at a rough estimate) 25 % of control]"}]}, {"smiles": "C[C@H](CCC(=O)NCCS(=O)(=O)O)[C@H]1CC[C@H]2[C@@H]3[C@@H](O)C[C@@H]4C[C@H](O)CC[C@]4(C)[C@H]3CC[C@]12C", "note": "[TAURURSODIOL]", "values": [{"measurement": "Activity", "setting": "[2]", "result": "inhibitor [(at a rough estimate) 25 % of control]"}]}, {"smiles": "C[C@H](CCC(=O)O)[C@H]1CC[C@H]2[C@@H]3[C@@H](O)C[C@@H]4C[C@H](O)CC[C@]4(C)[C@H]3CC[C@]12C", "note": "[URSODIOL]", "values": [{"measurement": "Activity", "setting": "[3]", "result": "inhibitor [(at a rough estimate) 45 % of control]"}]}]}
